{"source": "patent US20190021998A1", "about": "“TOPICAL NANOEMULSION THERAPY FOR WOUNDS” (THE REGENTS OF THE UNIVERSITY OF MICHIGAN, priority 2014, published 2019)", "origin": "cited, not measured here", "details": "footnote *", "data": [{"smiles": "CCCCCCCCCCCCCCCCCC[N+](C)(C)CCCCCCCCCCCCCCCCCC", "note": "[DODAC, Dioctadecyl dimethyl ammonium chloride]", "values": [{"measurement": "CMC (mM), critical concentration for unilamellar vesicles", "result": "10* mM"}]}]}
